PubChem BioAssay AID1259407 (Chemical Carcinogenesis Research Information System (CCRIS), 2018)
Active and inactive are the calls of the source. How the calls were made is not given here.

Test system: CCRIS mutagenicity, Ames/micronucleus/aberration tests
Assay: CCRIS mutagenicity studies
[1] = Test System: AMES SALMONELLA TYPHIMURIUM, Strain/Indicator: TA98, Metabolic Activation: NONE, Method: STANDARD PLATE
[2] = Test System: AMES SALMONELLA TYPHIMURIUM, Strain/Indicator: TA100, Metabolic Activation: NONE, Method: PREINCUBATION
[3] = Test System: AMES SALMONELLA TYPHIMURIUM, Strain/Indicator: TA100, Metabolic Activation: NONE, Method: STANDARD PLATE
[4] = Test System: AMES SALMONELLA TYPHIMURIUM, Strain/Indicator: TA98, Metabolic Activation: NONE, Method: PREINCUBATION
[5] = Test System: AMES SALMONELLA TYPHIMURIUM, Strain/Indicator: TA98, Metabolic Activation: RAT, LIVER, S-9, PCB, Method: PREINCUBATION
[6] = Test System: AMES SALMONELLA TYPHIMURIUM, Strain/Indicator: TA100, Metabolic Activation: RAT, LIVER, S-9, PCB, Method: PREINCUBATION

O=C(N[C@@H](Cc1ccc(Cl)cc1)C(=O)O)OCc1ccccc1
mutagenic call (Test System: AMES SALMONELLA TYPHIMURIUM, Strain/Indicator: TA98, Metabolic Activation: NONE): inactive; negative
mutagenic call (Test System: AMES SALMONELLA TYPHIMURIUM, Strain/Indicator: TA100, Metabolic Activation: NONE): active; positive
mutagenic call (Test System: AMES SALMONELLA TYPHIMURIUM, Strain/Indicator: TA1535, Metabolic Activation: NONE): inactive; negative
mutagenic call (Test System: AMES SALMONELLA TYPHIMURIUM, Strain/Indicator: TA1537, Metabolic Activation: NONE): inactive; negative
mutagenic call (Test System: B. SUBTILIS, Strain/Indicator: BD190 REC, Metabolic Activation: NONE, Method: SPOT TEST): active; positive
mutagenic call (Test System: E. COLI, Strain/Indicator: AB2462 UVRA, Metabolic Activation: NONE, Method: SPOT TEST): active; positive
mutagenic call (Test System: E. COLI, Strain/Indicator: WP6 POLA, Metabolic Activation: NONE, Method: SPOT TEST): inactive; negative

CC(=O)O[C@@H]1[C@@H](O)[C@H]2O[C@@H]3C=C(C)C(=O)[C@@H](O)[C@]3(CO)[C@]1(C)[C@]21CO1
mutagenic call [1]: inactive; negative
mutagenic call (Test System: AMES SALMONELLA TYPHIMURIUM, Strain/Indicator: TA98, Metabolic Activation: RAT LIVER S-9, DELOREM 103, Method: STANDARD PLATE): inactive; negative
mutagenic call [2]: inactive; negative
mutagenic call [3]: inactive; negative
mutagenic call (Test System: AMES SALMONELLA TYPHIMURIUM, Strain/Indicator: TA100, Metabolic Activation: RAT LIVER S-9, DELOREM 103, Method: STANDARD PLATE): inactive; negative
mutagenic call (Test System: AMES SALMONELLA TYPHIMURIUM, Strain/Indicator: TA100, Metabolic Activation: RAT, LIVER, S-9, PHENOBARBITAL, Method: PREINCUBATION): inactive; negative

Oc1cc(Cl)ccc1Oc1ccc(Cl)cc1Cl
mutagenic call (End Point: In vitro chromosomal aberrations, Test System: Chinese hamster ovary strain K1-BH4 cells, Metabolic Activation: None): inactive; negative
mutagenic call (End Point: In vitro chromosomal aberrations, Test System: Chinese hamster ovary strain K1-BH4 cells, Metabolic Activation: S-9): inactive; negative
mutagenic call (End Point: In vivo chromosomal aberrations, Test System: Bone marrow, Species: Rat, Strain/Sex: Wistar/Female, Route: Gavage): inactive; negative
mutagenic call (End Point: In vivo chromosomal aberrations, Test System: Bone marrow, Species: Rat, Strain/Sex: Wistar/Male, Route: Gavage): inactive; negative
mutagenic call (End Point: In vivo micronucleus, Test System: Bone marrow, Species: Mouse, Strain/Sex: CD-1 SPF Swiss albino, Route: Gavage): inactive; negative
mutagenic call (Test System: Ames Salmonella typhimurium, Strain/Indicator: TA98, Metabolic Activation: None, Method: Preincubation): inactive; negative
mutagenic call (Test System: Ames Salmonella typhimurium, Strain/Indicator: TA98, Metabolic Activation: None, Method: Standard Plate): inactive; negative
mutagenic call (Test System: Ames Salmonella typhimurium, Strain/Indicator: TA98, Metabolic Activation: S-9, Method: Preincubation): inactive; negative
mutagenic call (Test System: Ames Salmonella typhimurium, Strain/Indicator: TA98, Metabolic Activation: S-9, Method: Standard Plate): inactive; negative
mutagenic call (Test System: Ames Salmonella typhimurium, Strain/Indicator: TA100, Metabolic Activation: None, Method: Preincubation): inactive; negative
mutagenic call (Test System: Ames Salmonella typhimurium, Strain/Indicator: TA100, Metabolic Activation: None, Method: Standard Plate): inactive; negative
mutagenic call (Test System: Ames Salmonella typhimurium, Strain/Indicator: TA100, Metabolic Activation: S-9, Method: Preincubation): inactive; negative
mutagenic call (Test System: Ames Salmonella typhimurium, Strain/Indicator: TA100, Metabolic Activation: S-9, Method: Standard Plate): inactive; negative
mutagenic call (Test System: Ames Salmonella typhimurium, Strain/Indicator: TA 1535, Metabolic Activation: None, Method: Preincubation): inactive; negative
mutagenic call (Test System: Ames Salmonella typhimurium, Strain/Indicator: TA 1535, Metabolic Activation: None, Method: Standard Plate): inactive; negative
mutagenic call (Test System: Ames Salmonella typhimurium, Strain/Indicator: TA 1535, Metabolic Activation: S-9, Method: Preincubation): inactive; negative
mutagenic call (Test System: Ames Salmonella typhimurium, Strain/Indicator: TA 1535, Metabolic Activation: S-9, Method: Standard Plate): inactive; negative
mutagenic call (Test System: Ames Salmonella typhimurium, Strain/Indicator: TA1537, Metabolic Activation: None, Method: Preincubation): inactive; negative
mutagenic call (Test System: Ames Salmonella typhimurium, Strain/Indicator: TA1537, Metabolic Activation: None, Method: Standard Plate): inactive; negative
mutagenic call (Test System: Ames Salmonella typhimurium, Strain/Indicator: TA1537, Metabolic Activation: S-9, Method: Preincubation): inactive; negative
mutagenic call (Test System: Ames Salmonella typhimurium, Strain/Indicator: TA1537, Metabolic Activation: S-9, Method: Standard Plate): inactive; negative
mutagenic call (Test System: Ames Salmonella typhimurium, Strain/Indicator: TA1538, Metabolic Activation: None, Method: Standard Plate): inactive; negative
mutagenic call (Test System: Ames Salmonella typhimurium, Strain/Indicator: TA1538, Metabolic Activation: S-9, Method: Standard Plate): inactive; negative

CC12OOC1(C)c1ccccc1O2 (configuration not stated)
mutagenic call [2]: active; positive
mutagenic call (Test System: AMES SALMONELLA TYPHIMURIUM, Strain/Indicator: TA2638, Metabolic Activation: NONE, Method: PREINCUBATION): inactive; negative

N#CCCC(=O)/C=C/c1ccc(C(=O)O)cc1
mutagenic call [4]: inactive; negative
mutagenic call [5]: inactive; negative
mutagenic call [2]: inactive; negative
mutagenic call [6]: inactive; negative

COc1cccc2c1C(=O)c1c(O)c3c(c(O)c1C2=O)C[C@@](O)(C(C)=O)C[C@@H]3O[C@H]1C[C@H](NCc2ccccc2)[C@H](O)[C@H](C)O1
mutagenic call (Test System: UDS RAT HEPATOCYTES, Strain/Indicator: THY INCORP, Metabolic Activation: NONE, Method: AUTOMATIC COLONY COUNTER): active; positive

CNCCN(Cc1ccc(OC)cc1)c1ccccn1
mutagenic call (Test System: AMES SALMONELLA TYPHIMURIUM, Strain/Indicator: TA97, Metabolic Activation: NONE, Method: STANDARD PLATE): inactive; negative
mutagenic call (Test System: AMES SALMONELLA TYPHIMURIUM, Strain/Indicator: TA97, Metabolic Activation: RAT, LIVER, S-9, AROCLOR 1254, Method: STANDARD PLATE): inactive; negative
mutagenic call [1]: inactive; negative
mutagenic call (Test System: AMES SALMONELLA TYPHIMURIUM, Strain/Indicator: TA98, Metabolic Activation: RAT, LIVER, S-9, AROCLOR 1254, Method: STANDARD PLATE): inactive; negative
mutagenic call [3]: inactive; negative
mutagenic call (Test System: AMES SALMONELLA TYPHIMURIUM, Strain/Indicator: TA100, Metabolic Activation: RAT, LIVER, S-9, AROCLOR 1254, Method: STANDARD PLATE): inactive; negative
mutagenic call (Test System: AMES SALMONELLA TYPHIMURIUM, Strain/Indicator: TA102, Metabolic Activation: NONE, Method: STANDARD PLATE): inactive; negative
mutagenic call (Test System: AMES SALMONELLA TYPHIMURIUM, Strain/Indicator: TA102, Metabolic Activation: RAT, LIVER, S-9, AROCLOR 1254, Method: STANDARD PLATE): inactive; negative

C1CC2(CCO1)CO2
mutagenic call (Test System: AMES SALMONELLA TYPHIMURIUM, Strain/Indicator: TA100, Metabolic Activation: STANDARD PLATE): active; positive

CC(=O)OC1Cc2cc3cccc4ccc5ccc1c2c5c43 (configuration not stated)
mutagenic call [1]: active; positive
mutagenic call [3]: active; positive

NNc1nncc2ccncc12
mutagenic call [4]: active; positive
mutagenic call [5]: active; positive
mutagenic call [2]: active; positive
mutagenic call [6]: active; positive

[Be]=[O]
mutagenic call [4]: inactive; negative
mutagenic call (Test System: AMES SALMONELLA TYPHIMURIUM, Strain/Indicator: TA98, Metabolic Activation: RAT, LIVER, S-9 (10%), Method: PREINCUBATION): inactive; negative
mutagenic call [2]: inactive; negative
mutagenic call (Test System: AMES SALMONELLA TYPHIMURIUM, Strain/Indicator: TA100, Metabolic Activation: RAT, LIVER, S-9 (10%), Method: PREINCUBATION): inactive; negative
